Like-named read-outs stand apart in the source and are kept apart here.
How the values were obtained:
[1] = test system: U87 cells (human glioblastoma, αVβ3+); assay: cells; assay type: cell-based; conditions: for IC50: 96 hours treatment, triplicate, read-out: IC50 U87 (αVβ3+), inhibition of cell viability
Description: (§1) The cell lines were treated with different concentrations of the free drug α-amanitin and conjugates 7–11 for 96 hours. […]
(§2) described recently.[S1] The SNP profiles matched known profiles or were unique. The purity of the cell lines was validated using the Multiplex cell Contamination Test by Multiplexion (Heidelberg, Germany) as described recently.[S2] No mycoplasma, SMRV or interspecies contamination was detected. U87-MG, MDA-MB 468 and A549 cells were cultivated continuously for not more than 3 months in MEM Eagle´s, DMEM or Ham´s F12 medium, respectively, supplemented with 10% heat inactivated fetus calf serum, L-glutamine and antibiotics. Cell lines were maintained at 37 °C and 5% CO2 in a high humidity atmosphere.
(§3) Cell therapy and viability assay
(§4) Cell viability assays were performed in U87-MG, A549 and MDA-MB 468 cell lines according to the following procedure: 2 × 10^3 cells/well were plated in 96-well black clear bottom plates (Perkin Elmer) and incubated overnight. 1:5 serial dilutions of compounds 7–11 were prepared in cell culture media. The compounds were added to the cell culture and incubated for additional 96 h. Starting concentration of compounds 7–11 in the wells was 1 × 10−5 M and cell viability was determined with the CellTiterGlo 2.0 assay (Promega) in accordance to manufacturer’s instructions. The cell viability was calculated in relation to the non-treated controls for each cell line. All samples were measured in triplicate. Data analysis was carried out using software GraphPad Prism (GraphPad Software Inc., La Jolla, CA, USA).
Competition experiment of compounds 10 and 11
The competition experiment s were performed in U87-MG and MDA-MB 468 cell lines according to the following procedure: 2 × 10^3 cells/well were plated in 96-well black clear bottom plates (Perkin Elmer) and incubated overnight. A solution containing 1 × 10−4 M of the conjugates 10 or 11 and 5 × 10−3 M of cilengitide (50-fold excess of ligand in comparison to the conjugate) was prepared in the growth medium and 1:5 serial dilutions were prepared in cell culture media. The compounds were added to cell culture and incubated for 96 h. The starting concentration of the compounds in the wells was 0.01 mM whereas that of cilengitide was 0.5 mM. The cell viability was determined with the CellTiterGlo 2.0 assay (Promega) in accordance to manufacturer’s instructions and the viability was calculated in relation to the non-treated controls for each cell line. All samples were measured in triplicate. Data analysis was carried out using software GraphPad Prism (GraphPad Software Inc., La Jolla, CA, USA).
(§5) [S1] F. Castro, W. G. Dirks, S. Fähnrich, A. Hotz-Wagenblatt, M. Pawlita, M. Schmitt, Int. J. Cancer […]
(§6) [S2] M. Schmitt, M. Pawlita, Nucleic Acids Res. 2009, 37, e119.

[2] = target: T1, Recombinant human integrin αVβ3 (Homo sapiens, UniProt P05106+P06756); assay: Inhibition of biotinylated vitronectin binding to purified αVβ3 receptor (solid phase receptor binding assay); conditions: conjugates, Table 2; mean ± SD of triplicate determinations
T1 construct: purchased R&D Systems, Minneapolis, MN, USA
T1 sequence (P06756 31-992 limits assumed): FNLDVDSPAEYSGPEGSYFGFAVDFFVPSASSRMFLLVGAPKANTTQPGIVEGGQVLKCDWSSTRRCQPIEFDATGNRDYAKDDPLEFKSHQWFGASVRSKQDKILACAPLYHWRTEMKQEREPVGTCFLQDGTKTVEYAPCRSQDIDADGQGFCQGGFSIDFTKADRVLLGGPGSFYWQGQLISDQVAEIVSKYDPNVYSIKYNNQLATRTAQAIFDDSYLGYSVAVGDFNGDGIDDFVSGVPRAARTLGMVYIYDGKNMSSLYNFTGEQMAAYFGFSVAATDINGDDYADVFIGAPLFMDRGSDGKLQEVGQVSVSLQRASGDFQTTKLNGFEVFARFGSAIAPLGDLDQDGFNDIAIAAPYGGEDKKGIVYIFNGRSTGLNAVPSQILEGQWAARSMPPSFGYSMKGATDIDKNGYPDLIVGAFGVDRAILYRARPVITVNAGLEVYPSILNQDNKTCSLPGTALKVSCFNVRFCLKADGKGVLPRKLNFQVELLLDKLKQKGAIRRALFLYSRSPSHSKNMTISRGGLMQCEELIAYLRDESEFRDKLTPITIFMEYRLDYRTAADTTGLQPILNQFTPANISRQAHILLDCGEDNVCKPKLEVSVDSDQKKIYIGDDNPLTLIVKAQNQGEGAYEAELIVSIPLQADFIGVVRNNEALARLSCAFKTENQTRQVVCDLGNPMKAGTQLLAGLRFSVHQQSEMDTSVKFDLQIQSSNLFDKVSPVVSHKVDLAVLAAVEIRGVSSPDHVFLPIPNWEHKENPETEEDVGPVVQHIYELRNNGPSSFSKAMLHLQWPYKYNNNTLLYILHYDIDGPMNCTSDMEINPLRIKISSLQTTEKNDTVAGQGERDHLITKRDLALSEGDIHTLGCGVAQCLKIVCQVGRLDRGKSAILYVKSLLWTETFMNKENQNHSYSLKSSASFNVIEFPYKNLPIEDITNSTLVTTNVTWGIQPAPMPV
T1 sequence (P05106 27-718 limits assumed): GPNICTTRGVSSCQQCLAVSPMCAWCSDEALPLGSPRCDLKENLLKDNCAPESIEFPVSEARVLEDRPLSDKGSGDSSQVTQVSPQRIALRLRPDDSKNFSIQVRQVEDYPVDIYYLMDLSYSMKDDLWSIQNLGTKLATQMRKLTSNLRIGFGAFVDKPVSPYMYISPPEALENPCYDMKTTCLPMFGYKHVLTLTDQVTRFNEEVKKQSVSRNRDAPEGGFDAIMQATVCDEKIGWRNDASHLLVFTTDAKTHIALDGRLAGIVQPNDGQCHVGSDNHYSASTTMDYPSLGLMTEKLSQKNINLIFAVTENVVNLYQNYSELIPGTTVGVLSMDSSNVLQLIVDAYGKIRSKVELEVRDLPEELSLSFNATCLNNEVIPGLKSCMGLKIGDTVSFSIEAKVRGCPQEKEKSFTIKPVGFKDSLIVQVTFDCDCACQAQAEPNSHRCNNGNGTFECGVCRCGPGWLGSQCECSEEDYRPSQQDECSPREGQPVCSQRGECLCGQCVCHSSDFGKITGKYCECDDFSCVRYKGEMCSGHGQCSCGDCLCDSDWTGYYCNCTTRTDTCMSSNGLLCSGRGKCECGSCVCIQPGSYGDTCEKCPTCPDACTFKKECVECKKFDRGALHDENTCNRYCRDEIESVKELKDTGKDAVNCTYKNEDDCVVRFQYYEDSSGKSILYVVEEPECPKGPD
Description: Conjugates 7–11 were evaluated for their ability to inhibit biotinylated vitronectin binding to the purified αVβ3 receptor. Screening assays were performed by incubating the immobilized integrin receptor with solutions of the cyclo[DKP-RGD]-α-amanitin and cyclo[DKP-isoDGR]-α-amanitin conjugates 7–11 at different concentrations (10^−12 to 10^−5 M) in the presence of biotinylated vitronectin (1 µg mL^−1) and measuring bound vitronectin. […]
to assist the dissolution). The solution obtained was filtered (polypropylene, 0.45 μm, 13 mm ø, PK/100) and injected in the HPLC, affording purified products. Purity analyses were carried on a Dionex Ultimate 3000 instrument equipped with a Dionex RS Variable Wavelenght detector (column: Atlantis® Prep T3 OBDTM 5 μm 19 × 100 mm). The analyte (1 mg) was dissolved in 1 mL of H2O and was injected using the same gradient used in the purification step. The analysis of the integrals and the relative percentage of purity were performed with the software Chromeleon 6.80 SR11 Build 3161. Also, preparative HPLC LaPrep∑ equipped with autosampler AS3950 and a Phenomenex Luna C-18(2) column, 10 µm, 250 × 21.2 mm, with precolumn at 30 mL/min flow rate and analytical HPLC performed on Hitachi Chromaster (column oven Chromaster 5310, pump Chromaster 5110, autosampler Chromaster 5210, DAD Chromaster 5430) equipped with a Phenomenex Luna C-18(2) column, 10 µm, 250 × 4.6 mm, with precolumn at 1.4 mL/min flow rate were used. Freeze-drying: The product was dissolved in water and frozen with dry ice. The freeze-drying was carried out at least for 48 h at −50 °C using the instrument 5Pascal Lio5P DGT.
Solid phase receptor binding assays
Recombinant human integrin αVβ3 (R&D Systems, Minneapolis, MN, USA) was diluted to 0.5 µg/mL in coating buffer containing 20 mM Tris-HCl (pH 7.4), 150 mM NaCl, 1 mM MnCl2, 2 mM CaCl2, and 1 mM MgCl2. […] Absorbance at 415 nm was read in a SynergyTM HT Multi-Detection Microplate Reader (BioTek Instruments, Inc.). […]

[3] = test system: MDA-MB-468 cells (breast adenocarcinoma, αVβ3−); assay: cells; assay type: cell-based; conditions: 96 hours treatment, triplicate, read-out: IC50 MDA-MB-468 (αVβ3−), inhibition of cell viability
Description: as §1, §2, §3
as §4, with “USA). […]” for “USA).”
as §5, §6

[4] = test system: A549 cells (human lung carcinoma, αVβ3−); assay: cells; assay type: cell-based
Description: as §1, §2, §3
as §4, with “USA). […]” for “USA).”

[5] = test system: αVβ3 positive and αVβ3 negative cell line; set-up: method as in PMID 28449309; conditions: αVβ3 positive vs αVβ3 negative cell line; cited from earlier work
αVβ5 receptor [6] = assay: Inhibition of biotinylated vitronectin binding to αVβ5 receptor; conditions: ratio of IC50 values of Table 1
αVβ5 receptor [7] = target: αVβ5 receptor; set-up: method as in PMID 22517378, PMID 23424096; conditions: free ligands, Table 1; mean ± SD of triplicate determinations; read-out: IC50 αVβ5, inhibition of biotinylated vitronectin binding; cited from earlier work
αVβ3 = test system: αVβ3; set-up: method as in PMID 28074920; conditions: read-out: IC50 αVβ3 binding; cited from earlier work
αVβ5 = test system: αVβ5; set-up: method as in PMID 28074920; conditions: read-out: IC50 αVβ5 binding; cited from earlier work
α5β1 = test system: α5β1; set-up: method as in PMID 28074920; conditions: read-out: IC50 α5β1 binding; cited from earlier work

Molecule: CC[C@H](C)[C@@H]1NC(=O)CNC(=O)[C@@H]2Cc3c([nH]c4cc(OCCCCCCNC(=O)CCCC(=O)NCc5ccc(CN6C(=O)[C@H]7CC(=O)N[C@@H](CCCNC(=N)N)C(=O)NCC(=O)N[C@@H](CC(=O)O)C(=O)NC[C@H]6C(=O)N7)cc5)ccc34)[S+]([O-])C[C@H](NC(=O)CNC1=O)C(=O)N[C@@H](CC(N)=O)C(=O)N1C[C@H](O)C[C@H]1C(=O)N[C@@H]([C@@H](C)[C@@H](O)CO)C(=O)N2 (stereo partly drawn) [Compound 7, cyclo[DKP-RGD]-uncleavable-α-amanitin]
- IC50 [1]: 2550 ± 37.6 nM
- IC50 [2]: 11.6 ± 2.4 nM
- IC50 [3]: 1110 ± 228 nM

Molecule: CC[C@H](C)[C@@H]1NC(=O)CNC(=O)[C@@H]2Cc3c([nH]c4cc(OCCCCCCNC(=O)CCCC(=O)NCc5ccc(CN6C(=O)[C@H]7CC(=O)N[C@H](C(=O)O)CC(=O)NCC(=O)N[C@@H](CCCNC(=N)N)C(=O)NC[C@H]6C(=O)N7)cc5)ccc34)[S+]([O-])C[C@H](NC(=O)CNC1=O)C(=O)N[C@@H](CC(N)=O)C(=O)N1C[C@H](O)C[C@H]1C(=O)N[C@@H]([C@@H](C)[C@@H](O)CO)C(=O)N2 (stereo partly drawn) [Compound 8, cyclo[DKP-isoDGR]-uncleavable-α-amanitin]
- IC50 [1]: 3355 ± 19.1 nM
- IC50 [2]: 6.8 ± 4.3 nM
- IC50 [3]: 2200 ± 96.2 nM

Molecule: CC[C@H](C)[C@@H]1NC(=O)CNC(=O)[C@@H]2Cc3c([nH]c4cc(OCc5ccc(NC(=O)[C@H](C)NC(=O)[C@@H](NC(=O)CCc6cn(CCOCCOCCOCCOCC(=O)NCc7ccc(CN8C(=O)[C@H]9CC(=O)N[C@H](C(=O)O)CC(=O)NCC(=O)N[C@@H](CCCNC(=N)N)C(=O)NC[C@H]8C(=O)N9)cc7)nn6)C(C)C)cc5)ccc34)[S+]([O-])C[C@H](NC(=O)CNC1=O)C(=O)N[C@@H](CC(N)=O)C(=O)N1C[C@H](O)C[C@H]1C(=O)N[C@@H]([C@@H](C)[C@@H](O)CO)C(=O)N2 (stereo partly drawn) [Compound 11, cyclo[DKP-isoDGR]-PEG-4-Val-Ala-α-amanitin]
- more potent than α-amanitin ([1]; in U87 and MDA-MB-468 cell lines, Table 3 entry 1 vs entry 6): 2.1–2.8 times
- less potent than the free drug (α-amanitin) ([4]; A549 cell line): 1.4 times

Molecule: CC(=O)O[C@H]1C(=O)[C@@]2(C)[C@H]([C@H](OC(=O)c3ccccc3)[C@]3(O)C[C@H](OC(=O)[C@H](OC(=O)N(C)CCN(C)C(=O)OCc4ccc(NC(=O)[C@H](C)NC(=O)[C@@H](NC(=O)CCCC(=O)NCc5ccc(CN6C(=O)[C@H]7CC(=O)N[C@@H](CCCNC(=N)N)C(=O)NCC(=O)N[C@@H](CC(=O)O)C(=O)NC[C@H]6C(=O)N7)cc5)C(C)C)cc4)[C@@H](NC(=O)c4ccccc4)c4ccccc4)C(C)=C1C3(C)C)[C@]1(OC(C)=O)CO[C@@H]1C[C@@H]2O [Conjugate 5, cyclo[DKP-RGD]-Val-Ala-PTX]
- targeting index (TI) [5]: 2.4

Molecule: CC(=O)O[C@H]1C(=O)[C@@]2(C)[C@H]([C@H](OC(=O)c3ccccc3)[C@]3(O)C[C@H](OC(=O)[C@H](OC(=O)N(C)CCN(C)C(=O)OCc4ccc(NC(=O)[C@H](C)NC(=O)[C@@H](NC(=O)CCCC(=O)NCc5ccc(CN6C(=O)[C@H]7CC(=O)N[C@H](C(=O)O)CC(=O)NCC(=O)N[C@@H](CCCNC(=N)N)C(=O)NC[C@H]6C(=O)N7)cc5)C(C)C)cc4)[C@@H](NC(=O)c4ccccc4)c4ccccc4)C(C)=C1C3(C)C)[C@]1(OC(C)=O)CO[C@@H]1C[C@@H]2O [Conjugate 6, cyclo[DKP-isoDGR]-Val-Ala-PTX]
- targeting index (TI) [5]: 9.9

Molecule: N=C(N)NCCC[C@@H]1NC(=O)C[C@H]2NC(=O)[C@H](CNC(=O)[C@H](CC(=O)O)NC(=O)CNC1=O)N(Cc1ccccc1)C2=O [Ligand 1, cyclo[DKP-RGD]]
- selectivity for αVβ3 in comparison with integrin αVβ5 (αVβ5 receptor [6]): 33–34 times
- IC50 (αVβ5 receptor [7]): 149 ± 25 nM

Molecule: CC[C@H](C)[C@@H]1NC(=O)CNC(=O)[C@@H]2Cc3c([nH]c4cc(O)ccc34)[S@+]([O-])C[C@H](NC(=O)CNC1=O)C(=O)N[C@@H](CC(N)=O)C(=O)N1C[C@H](O)C[C@H]1C(=O)N[C@@H]([C@@H](C)[C@@H](O)CO)C(=O)N2 [α-amanitin]
- IC50 ([1]; Homo sapiens, U-87 MG): 347 ± 132 nM
- IC50 ([4]; Homo sapiens, A549, 96 hours treatment, triplicate, read-out: IC50 A549 (αVβ3−), inhibition of cell viability): 518 ± 305 nM
- IC50 ([3]; Homo sapiens, MDA-MB-468): 185 ± 49.6 nM

Molecule: cilengitide
- IC50 (αVβ3): 0.6 nM
- IC50 (αVβ5): 8.4 nM
- IC50 (α5β1): 14.9 nM
